From patent US7615574B2, “Synergistic composition for treating leukemia” (Council of Scientific and Industrial Research, priority 2002, dated 2009)
Read-outs that look alike come from different tables or passages of the source.

Key:
CML patient's PBMC = test: Incubation of CML patient's PBMC with CA, viable cell count (growth inhibition); assay type: cell-based, human; conditions: PBMC / leukemic cells of CML patient
Experimental: Whole blood (10 ml each) was drawn from previously diagnosed myeloid leukemic patients, one patient was diagnosed as AML and the other one was diagnosed as CML. Mononuclear cells were separated by Ficoll/hypaque density gradient centrifugation. PBMC (1×10^5-2×10^6/ml) of myeloid leukemia patients were incubated with varied concentrations of CA for 48 hours at 37° C. in 5% CO2. Cells were then washed and counted for viability.

[1] = system: Molt 4 (T lymphoid Cell line); test: Growth inhibition of T lymphoid cell line Molt 4 by CA in vitro; assay type: cell-based; conditions: Homo sapiens, 1 × 10^5 cells per ml per well, read-out: Percentage Inhibition of Cell Growth; for inhibition at 50 µg/mL: CA 50.0 μg/ml; for inhibition at 100 µg/mL: CA 100.0 μg/ml; for inhibition at 200 µg/mL: CA 200.0 μg/ml
Excerpt: Culture of T-Lymphoid cell line Molt-4. This cell line was obtained from American Type culture collection (ATCC), VA, USA and grown in vitro as described for the cell line K562.

[2] = system: K 562 Erythroleukemia cell line; test: CA, PCQ and combination: growth inhibition of K562 (2×10^6 cells per ml per well); assay type: cell-based, human; conditions: for percentage growth inhibition of Erythroleukemia cells: concentration not given
[3] = system: U937 Promonocyte cell line; test: CA, PCQ and combination: growth inhibition of U937 (2×10^6 cells per ml per well); assay type: cell-based, human; conditions: for percentage growth inhibition of promonocyte cells: concentration not given
[4] = system: CML Patient's Leukemic cells; test: CA, PCQ and combination: growth inhibition of CML patient's leukemic cells (2×10^6 cells per ml per well); assay type: cell-based, human; conditions: for percentage growth inhibition of CML's leukemic cells: concentration not given
[5] = system: CML Patient's Leukemic cells; test: Analysis of cell cycle progression and apoptosis by Flow cytometry (propidium iodide); assay type: cell-based, human; conditions: 100.0 μg/ml; two days of culture
Experimental: Analysis of cell cycle progression and apoptosis by Flow cytometry PBMC of a CML patient was cultured in RPMI-1640 medium supplemented with 10% […] fetal bovine serum in the presence or absence of CA (100.0 μg/ml) for 48 hr. at 37° C. in 5% CO2. Cells were fixed with 40% ethanol treated with 500 μg/ml Rnase A, and then with 69 μM propidium iodide for analysis of DNA content by Flow Cytometry as described (Mitra et al., Molecular Medicine, 6:527-541, 2000).

leukemia cells = test: Biological activity of Piper betel HPLC zones and peaks: destruction of leukemic cells; assay type: cell-based; conditions: HPLC zones and peaks of Fraction E of Piper betel leaf extract
Excerpt: Collected material was examined for biological activity i.e. destruction of leukemic cells. […] 10 gm of above-mentioned material was loaded on Sephadex LH-20 column and chromatographed with water, water-methanol (1:1) and methanol as eluent. Three different fractions thus obtained from three different solvent systems were separately checked for biological activity. The activity was located only on
Fraction 2 i.e. Methanol-water (1:1) and termed as fraction E. Fraction E was then subjected to HPLC analysis using Intersil ODS-3 analytical column. The column was equilibrated with methanol-water-acetic acid (23:76:1), flow rate was maintained at 1.0 ml per min and peaks were identified at 280 nm. According to the retention time (RE) different peaks could be divided into three zones, ZA, ZB and ZC (FIG. 1). ZA had 4 major peaks whereas ZB had very small to moderate 10 peaks and ZC had two distinct peaks. It was convenient to observe biological activity of three zones AA, ZB and ZC, which were separately tested on leukemia cells for destructive activity.
The Zone ZB contained 10 peaks (1 to 10) of varied sizes. […] For this reason all different peaks were separately monitored for biological activity. […] On searching for activity of these peaks i.e. 1,5,6,7,9 and 10 corresponding to Rt 5.16, 8.34, 9.16, 9.86, 13.94 and 14.68 respectively. […]

Normal individual's PBMC = test: CA, PCQ and combination: growth inhibition of normal individual's PBMC (2×10^6 cells per ml per well); assay type: cell-based, human
Excerpt: Preparation of peripheral blood mononuclear cells (PBMC) from normal individuals. Whole blood was collected and mononuclear cells were separated by Ficoll/Hypaque density gradient centrifugation.
The number of cells used was 2×10^6 per ml per well.

## O=C(/C=C/c1ccc(O)c(O)c1)O[C@@H]1C[C@](O)(C(=O)O)C[C@@H](O)[C@H]1O (single isomer, unassigned) [CA, Chlorogenic acid]
CML patient's PBMC
  destruction of cells (in words): destroyed
[1]; 24 h, 1 day
  inhibition at 50 µg/mL: 3.57%
  inhibition at 100 µg/mL: 6.89%
  inhibition at 200 µg/mL: 13.8%
[1]; 48 h, 2 days
  inhibition at 50 µg/mL: 6.67%
  inhibition at 100 µg/mL: 14.7%
  inhibition at 200 µg/mL: 46.7%
[1]; 72 h, 3 days
  inhibition at 100 µg/mL: 18.8%
[2]
  percentage growth inhibition of Erythroleukemia cells: about 30%
[3]; Homo sapiens, U-937, 24 h, U937, single compound 25.0 μg/ml, 1 day, 2×10^6 cells per ml per well, read-out: % Inhibition of cell growth (After 1 day of incubation)
  inhibition at 25 µg/mL: ≤ 16.7%
[3]
  percentage growth inhibition of promonocyte cells: about 25%
[4]; Homo sapiens, 24 h, CML patient's leukemic cells, single compound 25.0 μg/ml, 1 day, 2×10^6 cells per ml per well, read-out: % Inhibition of cell growth (After 1 day of incubation)
  inhibition at 25 µg/mL: ≤ 2.38%
[4]; Homo sapiens, 24 h, CML patient's leukemic cells, single compound 50.0 μg/ml, 1 day, 2×10^6 cells per ml per well, read-out: % Inhibition of cell growth (After 1 day of incubation)
  inhibition at 50 µg/mL: 4.67%
[4]
  percentage growth inhibition of CML's leukemic cells: about 5%
[5]
  apoptosis in CML patients Leukemic cells in vitro (cell-cycle analysis): caused apoptosis
Leukemia cells
  biological activity i.e. destruction of leukemic cells (in words): detectable activity

## O=C(C=Cc1ccc(O)cc1)OC1CC(O)(C(=O)O)CC(O)C1O (stereo not shown) [PCQ, 3-o-p-Coumaryl quinic acid]
[2]; K 562, single compound 50.0 μg/ml, 1 day, 2×10^6 cells per ml per well
  % Inhibition of cell growth (After 1 day of incubation): 8.00%
[2]
  percentage growth inhibition of Erythroleukemia cells: about 8%
[3]; U937, single compound 50.0 μg/ml, 1 day, 2×10^6 cells per ml per well
  % Inhibition of cell growth (After 1 day of incubation): 4.17%
[3]
  percentage growth inhibition of promonocyte cells: about 5%
[4]; CML patient's leukemic cells, single compound 50.0 μg/ml, 1 day, 2×10^6 cells per ml per well
  % Inhibition of cell growth (After 1 day of incubation): 4.67%
[4]
  percentage growth inhibition of CML's leukemic cells: about 5%
Normal individual's PBMC; single compound 25.0 μg/ml
  % Inhibition of cell growth (After 1 day of incubation): 0.00%
Normal individual's PBMC; single compound 50.0 μg/ml
  % Inhibition of cell growth (After 1 day of incubation): 1.67%
Leukemia cells
  biological activity i.e. destruction of leukemic cells (in words): demonstrated considerable activity
